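1) Cells in 96-well plates. 2) Compound, 48 h, 5 concentrations. 3) Linear interpolation between surrounding doses. 4) Unreached endpoint = highest concentration. GI50 = concentration required for 50% inhibition of growth. TGI marks complete inhibition of growth.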

Among the test systems are OVCAR-8 ovarian; 786-0 renal; A549 NSCLC; HT29 colon; RPMI-8226 leukemia; EKVX NSCLC; COLO 205 colon; NCI-H522 lung; IGROV1 ovarian; HCT-116 colon.
Holding throughout (assay): inhibition of tumour cell growth, NCI panel, 48 h

Regarding `COc1ccc(-n2nc(C)c3c(Nc4ccc(NC(=O)Nc5cc(C(F)(F)F)ccc5F)cc4)ncnc32)cc1`, the GI50 was 2.36 µM in the assay on OVCAR-8 ovarian; 2.04 µM with 786-0 renal; 2.35 µM with A549 NSCLC; 2.31 µM in the assay on HT29 colon; 2.26 µM in the assay on RPMI-8226 leukemia; 2.25 µM in the assay on EKVX NSCLC. For the same molecule, the GI50 was 1.98 µM in the assay with COLO 205 colon, 1.94 µM with NCI-H522 lung, 2.98 µM in the assay on IGROV1 ovarian and 2.81 µM in the assay on HCT-116 colon. The TGI was determined as 6.16 µM with OVCAR-8 ovarian; 5.2 µM in the assay on 786-0 renal; 5.86 µM with A549 NSCLC; 5.8 µM with HT29 colon; 5.88 µM in the assay with RPMI-8226 leukemia; 5.88 µM in the assay with EKVX NSCLC. Moreover, the TGI was 4.93 µM in the assay on COLO 205 colon, 4.95 µM with NCI-H522 lung, 11.1 µM in the assay on IGROV1 ovarian and 10.3 µM with HCT-116 colon.

For the molecule `CCOc1ccc2c(-c3ccnc(Nc4cccc(C(F)(F)F)c4)n3)cnn2n1`, the GI50 with OVCAR-8 ovarian is 5.44 µM; with 786-0 renal, 7.3 µM; in the assay on A549 NSCLC, 4.4 µM; in the assay with HT29 colon, 10.1 µM; in the assay on RPMI-8226 leukemia, above 25 µM; with EKVX NSCLC, above 17.9 µM. Besides, the GI50 with COLO 205 colon is above 25 µM; in the assay on NCI-H522 lung, 6.33 µM; in the assay on IGROV1 ovarian it was 10.9 µM; with HCT-116 colon, 6.04 µM. Moreover, the TGI in the assay on OVCAR-8 ovarian is 11.7 µM; with 786-0 renal, above 19.6 µM; in the assay with A549 NSCLC, 9.19 µM; in the assay with HT29 colon, above 25 µM; in the assay on RPMI-8226 leukemia, above 25 µM; in the assay on EKVX NSCLC, above 25 µM. The TGI is above 25 µM in the assay with COLO 205 colon, above 23.1 µM with NCI-H522 lung, above 25 µM in the assay with IGROV1 ovarian and 15.2 µM with HCT-116 colon.

With `CC(C)c1cccc2sc(NC(=O)C(=O)CC(=O)c3ccc(F)cc3)nc12`, the TGI in the assay with OVCAR-8 ovarian, in the assay with 786-0 renal, in the assay with A549 NSCLC, with HT29 colon, with RPMI-8226 leukemia and in the assay with EKVX NSCLC was above 100 µM throughout. The TGI in the assay on COLO 205 colon, with NCI-H522 lung, with IGROV1 ovarian and in the assay on HCT-116 colon was above 100 µM each time.

In the case of `CNC1=C(Br)C(=O)C2=C(C1=O)C1C3=C(C(=O)C=CC3=O)C2c2ccccc21` (configuration not stated), the GI50 in the assay on OVCAR-8 ovarian is 2.99 µM; with 786-0 renal, 2.12 µM; with A549 NSCLC, 3.02 µM; in the assay with HT29 colon, 2.72 µM; in the assay on EKVX NSCLC it was 1.94 µM; in the assay on COLO 205 colon, 4.07 µM. The values for the GI50 with NCI-H522 lung, with IGROV1 ovarian and with HCT-116 colon were 6.7 µM, 4.69 µM and 1.44 µM, respectively. The TGI in the assay with OVCAR-8 ovarian is 8.93 µM; with 786-0 renal, 4.57 µM; in the assay on HT29 colon, above 100 µM; in the assay on RPMI-8226 leukemia, above 31.4 µM; in the assay with EKVX NSCLC, 3.7 µM; in the assay on COLO 205 colon it was 35.4 µM. The TGI in the assay on NCI-H522 lung is above 22.4 µM; in the assay with IGROV1 ovarian it was 18 µM; in the assay with HCT-116 colon it was 2.86 µM.

As for `CN(C)CC1CCC(CN(C)C)C1=NO` (configuration not stated), the TGI in the assay with OVCAR-8 ovarian, in the assay with 786-0 renal, with A549 NSCLC, in the assay with HT29 colon, in the assay with RPMI-8226 leukemia and in the assay with EKVX NSCLC was above 100 µM each time. In addition, the TGI in the assay with COLO 205 colon, with NCI-H522 lung, with IGROV1 ovarian and in the assay on HCT-116 colon was above 100 µM throughout.

As to `COc1ccc(S(=O)(=O)N2CCCCC2)cc1NC(=O)c1[nH]c(C)c2c1CCCCC2=O`, the GI50 is 2.19 µM in the assay on OVCAR-8 ovarian; 1.06 µM with 786-0 renal; 2.26 µM with A549 NSCLC; 0.822 µM in the assay on HT29 colon; 1.46 µM in the assay on RPMI-8226 leukemia; 3.78 µM in the assay with EKVX NSCLC. The GI50 was 1.71 µM with COLO 205 colon, 0.374 µM in the assay on NCI-H522 lung, 1.45 µM in the assay on IGROV1 ovarian and 1.32 µM with HCT-116 colon. In addition, the TGI in the assay on OVCAR-8 ovarian was 46.6 µM; with 786-0 renal, above 100 µM; with A549 NSCLC it was 15 µM; with HT29 colon, 21.7 µM; in the assay with RPMI-8226 leukemia it was 32.4 µM; in the assay with EKVX NSCLC, above 100 µM. Besides, the TGI came out at 26.4 µM in the assay on COLO 205 colon, 7.73 µM in the assay with NCI-H522 lung, 44.3 µM in the assay with IGROV1 ovarian and 19.3 µM with HCT-116 colon.

Turning to `CN(C)c1ccc2c(SCC(=O)OCC(=O)[C@@]3(O)CC[C@H]4[C@@H]5CCC6=CC(=O)C=C[C@]6(C)[C@H]5C(=O)C[C@@]43C)c3ccc(N(C)C)cc3nc2c1`, the TGI in the assay on OVCAR-8 ovarian is 37 µM; in the assay on 786-0 renal, above 47.4 µM; with A549 NSCLC, above 100 µM; with HT29 colon, 25.4 µM; with RPMI-8226 leukemia, 82.5 µM; with EKVX NSCLC it was above 81.2 µM. Also, the TGI in the assay on COLO 205 colon, in the assay with NCI-H522 lung, in the assay with IGROV1 ovarian and in the assay with HCT-116 colon was above 100 µM in each case.

With `COc1cc(C(C)c2cc3c(cc2OCCOCCOc2cc4c(cc2C(C)c2cc(OC)c(OC)c(OC)c2)OCO4)OCO3)cc(OC)c1OC` (configuration not stated), the GI50 in the assay on OVCAR-8 ovarian, in the assay with 786-0 renal, in the assay with A549 NSCLC, in the assay with HT29 colon, in the assay with EKVX NSCLC and in the assay on COLO 205 colon was above 100 µM in each case. Moreover, the GI50 in the assay on NCI-H522 lung, in the assay on IGROV1 ovarian and in the assay on HCT-116 colon was above 100 µM in each case. The TGI in the assay on OVCAR-8 ovarian, in the assay with 786-0 renal, with A549 NSCLC, in the assay on HT29 colon, in the assay with RPMI-8226 leukemia and in the assay on EKVX NSCLC was above 100 µM throughout. Also, the TGI in the assay with COLO 205 colon, in the assay with NCI-H522 lung, in the assay on IGROV1 ovarian and with HCT-116 colon was above 100 µM throughout.

Take `Cc1occc1C(=S)Nc1ccc(Cl)c(C(=O)OCC2CC2)c1`: the TGI was above 100 µM in the assay with OVCAR-8 ovarian; above 100 µM in the assay with 786-0 renal; above 100 µM in the assay on A549 NSCLC; above 100 µM in the assay on HT29 colon; 85.5 µM in the assay on RPMI-8226 leukemia; above 100 µM in the assay on EKVX NSCLC. For the same molecule, the TGI in the assay on COLO 205 colon, in the assay on NCI-H522 lung, in the assay on IGROV1 ovarian and in the assay on HCT-116 colon was above 100 µM in each case.
